Experimental data: patent publication US9440941B2, “Substituted chroman-6-yloxy-cycloalkanes and their use as pharmaceuticals” (SANOFI, priority 2013, dated 2016)
Structures can show the parent of a compound that is named as a salt.

Target: T1, human NCX1 (Homo sapiens, UniProt P32418)
T1 construct: expressed in transfected cells
Test: Inhibition of Ca2+ influx into cells (NCX1 reverse mode), FLIPR Fluo-4 assay
Assay type: cell-based
Details: inhibition of NCX1 in reverse mode (Ca2+ influx into cells); read-out: NCX1rv IC50
From the text: The sodium/calcium exchanger NCX1 can transport calcium ions and sodium ions through the cell membrane. The transport is an exchange of Ca^2+ and Na^+ in two directions depending on membrane potential and ion gradients. At the first direction, named “forward mode” or “calcium export mode”, Ca^2+ is transported out of the cell and Na^+ is transported into the cell. At the other direction, named “reverse mode” or “calcium import mode”, the transport directions are vice versa. The effect of the compounds of the invention on NCX1 was determined in CHO cells stably expressing human NCX1 (gene symbol SLC8A1; cf. WO 2009/115238). The assay is based on the monitoring of intracellular Ca^2+ concentrations using a calcium-sensitive fluorescence dye which is detected by means of a FLIPR device (Fluorimetric Imaging Plate Reader, Molecular Devices).
Assay Technology—Reverse Mode
The assay is based on the monitoring of intracellular Ca^2+ concentrations using the calcium-sensitive dye Fluo-4. CHO cells expressing NCX1 were loaded with the dye by means of the acetoxymethyl ester Fluo-4 AM (Invitrogen, F14202), which is cleaved intracellularly by esterase activity to yield the charged species of free Fluo-4. After an preincubation period with the test compound, Gramicidine (Sigma, G5002) was added. Gramicidine is an ionophor for Na^+ ions mediating an increase of intracellular Na^+ ions. Consequently, intracellular Na^+ ions are exchanged against extracellular Ca^2+ ions (Ca^2+ influx, reverse mode). The intracellular elevation of Ca^2+ ions was detected by measuring the fluorescence of Fluo-4 at a wavelength of 520 nm by a FLIPR device.
Briefly, for the reverse mode transport assay 18000 cells per well were seeded into a 96 well microplate (Corning COSTAR 3904) and incubated overnight in culture medium (1× Nut Mix F12 (Ham) (Gibco, 21765-029); 10% (v/v) fetal calf serum (PAA Gold, A15-649); 450 μg/ml Geneticin (Gibco, 10131-027)). A total volume of 100 μl medium per well was used. For the preparation of the FLIPR assay, the culture medium was removed from the plates and 100 μl of dye solution (2 μM Fluo-4 AM; 0.02% (v/v) Pluronic F-127 (20%, Invitrogen, P3000MP); 0.1% (v/v) bovine albumin solution (30% (v/v), Sigma, A9205) in assay buffer (133.8 mM NaCl (Sigma, S5886); 4.7 mM KCl (Sigma, P3911); 1.25 mM MgCl2 (Merck, 1.05833.0250); 3.5 mM CaCl2 (Merck, 1.02083.0250); 5 mM glucose (Sigma, G7021); 10 mM Hepes (Sigma, H4034); 0.01% (v/v) Pluronic F-127 (5%, Sigma, P2443); 2.5 mM Probenecid (Maybridge, SB00915EB); pH 7.4)) were added into each well. The plates were incubated in the dark at room temperature for 80 min. After the incubation period, the dye solution was removed and the wells were washed with 100 μl of assay buffer. Then 80 μl of a solution of the test compound in assay buffer in different concentrations were added into the wells. The plates were incubated at 16° C. for 45 min. Meanwhile a 60 μM solution of Gramicidine in assay buffer (4° C.) was prepared and stored in the wells of a 96 well microplate (96 well microplate, polypropylene, U-shape (Greiner Bio-One, 650201)) at 4° C. until measurement was started. The fluorescence monitoring was performed at 240 measuring points with measurement intervals of 2 sec. After the fifth measuring point, 40 μl of the Gramicidine solution were added to each well of the assay plates to give a final Gramicidine concentration of 20 μM. For the determination of the IC50 values the minimal fluorescence value was subtracted from the maximal fluorescence value for all measuring points. The calculation of the IC50 values via the percentage inhibitions of Ca^2+ influx into cells (reverse mode) effected by the test compound was performed in Biost@t Speed 2.0.

SMILES | IC50 [µM]
Cc1c(F)cccc1C1CCc2cc(OC3CCC(C(=O)NC4CCCCC4O)CC3)ccc2O1 (single isomer, unassigned) [compound 287] | 0.1
COC(=O)CNC(=O)C1CCC(Oc2ccc3c(c2)CCC(c2ccccc2)O3)CC1 (single isomer, unassigned; stereoisomer 1) [compound 91, Methyl 2-{[cis-4-(2-phenylchroman-6-yloxy)cyclohexanecarbonyl]amino}acetate,stereoisomer 1 (2)] | 0.4
CCn1nccc1CNC(=O)C1CCC(Oc2ccc3c(c2)CCC(c2ccccc2)O3)CC1 (single isomer, unassigned; stereoisomer 1) [compound 93, N-(2-Ethyl-2H-pyrazol-3-ylmethyl)-[cis-4-(2-phenylchroman-6-yloxy)]-cyclohexanecarboxamide, stereoisomer 1 (2)] | 0.3
Cc1nc(CNC(=O)[C@H]2CC[C@@H](Oc3ccc4c(c3)CCC(c3ccccc3)O4)CC2)no1 (single isomer, unassigned; stereoisomer 1) [compound 95, N-(5-Methyl-[1,2,4]oxadiazol-3-ylmethyl)-[4-cis-(2-phenylchroman-6-yloxy)]-cyclohexanecarboxamide, stereoisomer 1 (2)] | 0.2
Cc1c(F)cccc1C1CCc2cc(OC3CCC(C(=O)NC4CCCC4O)CC3)ccc2O1 (single isomer, unassigned; stereoisomer 1) [compound 279, 4-[2-(3-Fluoro-2-methyl-phenyl)chroman-6-yloxy]-N-(2-hydroxycyclopentyl)cyclohexane-carboxamide, stereoisomer 1 (2)] | 0.7
COC(=O)CNC(=O)C1CCC(Oc2ccc3c(c2)CCC(c2ccccc2)O3)CC1 (single isomer, unassigned; stereoisomer 2) [compound 92, Methyl 2-[[cis-4-[2-phenylchroman-6-yloxy]cyclohexanecarbonyl]amino]acetate,stereoisomer 2 (2)] | 0.1
CCn1nccc1CNC(=O)C1CCC(Oc2ccc3c(c2)CCC(c2ccccc2)O3)CC1 (single isomer, unassigned; stereoisomer 2) [compound 94, N-(2-Ethyl-2H-pyrazol-3-ylmethyl)-[cis-4-(2-phenylchroman-6-yloxy)]-cyclohexanecarboxamide, stereoisomer 2 (2)] | 1.6
Cc1nc(CNC(=O)[C@H]2CC[C@@H](Oc3ccc4c(c3)CCC(c3ccccc3)O4)CC2)no1 (single isomer, unassigned; stereoisomer 2) [compound 96, N-(5-Methyl-[1,2,4]oxadiazol-3-ylmethyl)-[4-cis-(2-phenylchroman-6-yloxy)]-cyclohexanecarboxamide, stereoisomer 2 (2)] | 0.4
Cc1c(F)cccc1C1CCc2cc(OC3CCC(C(=O)NC4CCCC4O)CC3)ccc2O1 (single isomer, unassigned; stereoisomer 2) [compound 280, 4-[2-(3-Fluoro-2-methyl-phenyl)chroman-6-yloxy]-N-(2-hydroxycyclopentyl)cyclohexane-carboxamide, stereoisomer 2 (2)] | 0.1
N[C@H]1CC[C@H](Oc2ccc3c(c2)CCC(c2ccccc2)O3)CC1 (stereo partly drawn) [compound 5, trans-4-(2-Phenylchroman-6-yloxy)cyclohexylamine] | 0.3
N[C@H]1CC[C@H](Oc2ccc3c(c2)CC[C@H](c2ccccc2)O3)CC1 [compound 9, hydrochloride] | 0.3
N[C@H]1CC[C@H](Oc2ccc3c(c2)CC[C@@H](c2ccccc2)O3)CC1 [compound 10, hydrochloride] | 0.3
CCC(N)C1(CC)CCC(Oc2ccc3c(c2)CCC(c2ccccc2)O3)CC1 (stereo not drawn) [compound 11, hydrochloride] | 2.8
NCC(=O)NC1CCC(Oc2ccc3c(c2)CCC(c2ccccc2)O3)CC1 (stereo not drawn) [compound 12, hydrochloride] | 0.2
O=C(NCc1ccno1)C1CCC(Oc2ccc3c(c2)CCC(c2ccccc2)O3)CC1 (stereo not drawn) [compound 13] | 0.3
CCn1nccc1CNC(=O)C1CCC(Oc2ccc3c(c2)CCC(c2ccccc2)O3)CC1 (stereo not drawn) [compound 14] | 0.4
OCCNC1CCC(Oc2ccc3c(c2)CCC(c2ccccc2)O3)CC1 (stereo not drawn) [compound 15] | 0.2

SMILES | IC50 [µM]
CN(C)C(=O)NC1CCC(Oc2ccc3c(c2)CCC(c2ccccc2)O3)CC1 (stereo not drawn) [compound 16] | 1.3
CCCC1(N)CCC(Oc2ccc3c(c2)CCC(c2ccccc2)O3)CC1 (stereo not drawn) [compound 17, hydrochloride] | 1
CCCN[C@H]1CC[C@H](Oc2ccc3c(c2)CC[C@@H](c2ccccc2)O3)CC1 [compound 18] | 0.5
CO[C@H](C)C(=O)N[C@H]1CC[C@H](Oc2ccc3c(c2)CCC(c2ccccc2)O3)CC1 (stereo partly drawn) [compound 23] | 0.3
CCCN(CCC)[C@H]1CC[C@H](Oc2ccc3c(c2)CC[C@@H](c2ccccc2)O3)CC1 [compound 34] | 1.3
CSCCCN[C@H]1CC[C@H](Oc2ccc3c(c2)CCC(c2ccccc2)O3)CC1 (stereo partly drawn) [compound 48, N-(3-Methylsulfanylpropyl)-[trans-4-(2-phenylchroman-6-yloxy)]-cyclohexylamine] | 0.5
Cc1cc(CN[C@H]2CC[C@H](Oc3ccc4c(c3)CCC(c3ccccc3)O4)CC2)no1 (stereo partly drawn) [compound 49, N-(5-Methylisoxazol-3-ylmethyl)-[trans-4-(2-phenylchroman-6-yloxy)]-cyclohexylamine] | 0.6
Cc1csc(CN[C@H]2CC[C@H](Oc3ccc4c(c3)CCC(c3ccccc3)O4)CC2)n1 (stereo partly drawn) [compound 52, N-[(4-Methylthiazol-2-yl)methyl]-[trans-4-(2-phenylchroman-6-yloxy)]-cyclohexylamine] | 0.5
c1ccc(C2CCc3cc(O[C@H]4CC[C@H](NCc5ccoc5)CC4)ccc3O2)cc1 (stereo partly drawn) [compound 53, N-(Furan-3-ylmethyl)-[trans-4-(2-phenylchroman-6-yloxy)]-cyclohexylamine] | 0.5
Cc1cc(CN[C@H]2CC[C@H](Oc3ccc4c(c3)CCC(c3ccccc3)O4)CC2)nn1C (stereo partly drawn) [compound 56, N-(1,5-Dimethylpyrazol-3-ylmethyl)-[trans-4-(2-phenylchroman-6-yloxy)]-cyclohexylamine] | 0.5
Cn1cncc1CN[C@H]1CC[C@H](Oc2ccc3c(c2)CCC(c2ccccc2)O3)CC1 (stereo partly drawn) [compound 57, N-(3-Methylimidazol-4-ylmethyl)-[trans-4-(2-phenylchroman-6-yloxy)]-cyclohexylamine] | 0.5
Cc1nc(CN[C@H]2CC[C@H](Oc3ccc4c(c3)CCC(c3ccccc3)O4)CC2)cs1 (stereo partly drawn) [compound 59, N-(2-Methylthiazol-4-ylmethyl)-[trans-4-(2-phenylchroman-6-yloxy)]-cyclohexylamine] | 0.5
Cn1cc(Cl)c(CN[C@H]2CC[C@H](Oc3ccc4c(c3)CCC(c3ccccc3)O4)CC2)n1 (stereo partly drawn) [compound 62, N-(4-Chloro-1-methyl-pyrazol-3-ylmethyl)-[trans-4-(2-phenylchroman-6-yloxy)]-cyclohexylamine] | 0.6
c1ccc(C2CCc3cc(O[C@H]4CC[C@H](NCC5CCCCC5)CC4)ccc3O2)cc1 (stereo partly drawn) [compound 63, N-(Cyclohexylmethyl)-[trans-4-(2-phenylchroman-6-yloxy)]-cyclohexylamine] | 0.6
CSC(C)CCN[C@H]1CC[C@H](Oc2ccc3c(c2)CCC(c2ccccc2)O3)CC1 (stereo partly drawn) [compound 64, N-(3-Methylsulfanylbutyl)-[trans-4-(2-phenylchroman-6-yloxy)]-cyclohexylamine] | 0.5
CC(C)CN[C@H]1CC[C@H](Oc2ccc3c(c2)CCC(c2ccccc2)O3)CC1 (stereo partly drawn) [compound 65, N-Isobutyl-[trans-4-(2-phenylchroman-6-yloxy)]-cyclohexylamine] | 0.4
